In this test the target is T1, hSK1 channels (Homo sapiens, UniProt Q92952).
T1 construct: expressed in transfected cells; host or cells: HEK293
The test is described as follows: Whole-cell patch-clamp recording of SK current in HEK293 cells expressing hSK1 channels. The format is cell-based. Particulars: SK1 activation. From the text:
The compounds of the invention may be tested for their ability to modulate SK channels in vitro. Functional modulation can be determined by measuring the compound-induced change in SK current by the patch clamp technique as described in Strøbk et al.: “Pharmacological characterization of small-conductance Ca^2+-activated K channels expressed in HEK293 cells”, British Journal of Pharmacology (2000) 129, 991-999. From this type of measurements the potency of a given compound can be determined as e.g. Ki or IC50 values for blockers/inhibitors and EC50 values for openers/activators. Similar data can be obtained from other patch clamp configurations and from channels expressed endogenously in various cell lines.
The ionic current through small-conductance Ca^2+-activated K^+ channels (SK channels, subtype 1) is recorded using the whole-cell configuration of the patch-clamp technique in a classic patch-clamp set-up using HEK293 tissue culture cells expressing hSK1 channels as described in e.g. WO 2006/100212.
The SC100 value determined is defined as the Stimulating Concentration required for increasing the baseline current by 100%. The below SC100 values are an indication of the SK1 activating properties of the compounds of the invention.
For `CON=CNc1nc2nccc(C(C)Oc3ccc(Br)cc3)n2n1` (stereo not drawn) [Example 1, N-{7-[1-(4-Bromophenoxy)ethyl]-[1,2,4]triazolo[1,5-a]pyrimidin-2-yl}-N′-methoxy-formamidine], the “The SC100 (Stimulating Concentration required for increasing the baseline current by 100%)” value is 0.015 µM.

For `CON=CNc1nc2nccc(C(C)Oc3ccc(Cl)cc3Cl)n2n1` (stereo not drawn) [Example 2, N-{7-[1-(2,4-Dichlorophenoxy)ethyl]-[1,2,4]triazolo[1,5-a]pyrimidin-2-yl}-N′-methoxy-formamidine], the “The SC100 (Stimulating Concentration required for increasing the baseline current by 100%)” value was 0.005 µM.

Regarding `CON=CNc1nc2nccc(C(C)Oc3ccc(Cl)cc3)n2n1` (stereo not drawn) [Example 3, N-{7-[1-(4-Chlorophenoxy)ethyl]-[1,2,4]triazolo[1,5-a]pyrimidin-2-yl}-N′-methoxy-formamidine], the “The SC100 (Stimulating Concentration required for increasing the baseline current by 100%)” value turned out to be 0.04 µM.

For `CCCON=CNc1nc2nccc(C(C)Oc3ccc(Cl)cc3C)n2n1` (stereo not drawn) [Example 5, N-{7-[1-(4-Chloro-2-methylphenoxy)ethyl]-[1,2,4]triazolo[1,5-a]pyrimidin-2-yl}-N′-propyloxy-formamidine], the “The SC100 (Stimulating Concentration required for increasing the baseline current by 100%)” value amounted to 0.003 µM.

Turning to `Cc1cc(Cl)ccc1OC(C)c1ccnc2nc(NC=NOC(C)C)nn12` (stereo not drawn) [Example 6, N-{7-[1-(4-Chloro-2-methylphenoxy)ethyl]-[1,2,4]triazolo[1,5-a]pyrimidin-2-yl}-N′-isopropyloxy-formamidine], the “The SC100 (Stimulating Concentration required for increasing the baseline current by 100%)” value stood at 0.40 µM.

For the compound `CON=CNc1nc2nccc(C(C)(C)Oc3ccc(Cl)cc3C)n2n1` [Example 7, N-{7-[1-(4-Chloro-2-methylphenoxy)-1-methyl-ethyl]-[1,2,4]triazolo[1,5-a]pyrimidin-2-yl}-N′-methoxy-formamidine], the “The SC100 (Stimulating Concentration required for increasing the baseline current by 100%)” value stood at 0.60 µM.

With `CON=CNc1nc2nccc(C(C)Oc3ccc(Cl)cc3C)n2n1` (stereo not drawn) [Example A, N-{7-[1-(4-Chloro-2-methylphenoxy)ethyl]-[1,2,4]triazolo[1,5-a]pyrimidin-2-yl}-N′-methoxy-formamidine], the “The SC100 (Stimulating Concentration required for increasing the baseline current by 100%)” value amounted to 0.008 µM.

`CON=CNc1nc2nccc(C(C)Oc3ccc(F)cc3)n2n1` (stereo not drawn) [Example B, N-{7-[1-(4-Fluorophenoxy)ethyl]-[1,2,4]triazolo[1,5-a]pyrimidin-2-yl}-N′-methoxy-formamidine]: the “The SC100 (Stimulating Concentration required for increasing the baseline current by 100%)” value is 0.075 µM.

For “N-{7-[1-(4-Chloro-2-methylphenoxy)-ethyl]-6-methyl-[1,2,4]triazolo[1,5-a]pyrimidin-2-yl}-N′-hydroxy-formamidine [Example 4]”, the “The SC100 (Stimulating Concentration required for increasing the baseline current by 100%)” value amounted to 0.20 µM.

(Values after patent US8685987B2, “Substituted [1,2,4]triazolo[1,5-a]pyrimidines and their use as potassium channel modulators” (Ataxion, Inc., priority 2009, dated 2014).)
